# Like-named read-outs stand apart in the source and are kept apart here.
# Columns and labels:
# Leishmania donovani [1] = experiment: Lysis of L. donovani parasites; format: cell-based; settings: parasites 1x10^8 per mL in HBSS; examined at 4 hr and after overnight at 27° C.
# Leishmania donovani [2] = experiment: Effect on growth of L. donovani in serum-containing and serum-free medium; format: cell-based; settings: cell densities at 21 hr, in some cases 43 hr, 27° C.; for Lowest concentration with activity against L. Donovani: Growth: serum-containing M199 medium; for Lowest concentration with activity against L. Donovani: Growth (Serum Free Medium): serum-free REIII medium
# Procedure: For the purpose of determining the effect of the compounds on the growth of parasite in serum-containing and serum-free medium, the parasites were harvested from culture medium M199+5% FBS, washed twice in HBSS and resuspended in same at 1×10^8 /mL. Serum-containing M199 ans serum-free REIII media were filtered and sterilized prior to use. The washed cells were added to achieve an initial concentration of 1.66×10^6 cells/mL. Cell densities were determined by hemacytometry at 21 hr, and in some cases at 43 hr of incubation at 27° C.
# [3] = system: Herpes Simplex Virus 2 (HSV-2); experiment: Inhibition of HSV-2 growth in cultured cells; format: cell-based; settings: lowest concentration at which 50% of the viruses are rendered noninfective
# Text: Particularly preferred host cells are rabbit skin cells or Vero cells. […] Acyclovir, a known antiherpesviral agent (Douglas, R., Chapter 51 in Goodman and Gilman's the Pharmacological Basis of Therapeutics, 8th Ed., G. Gilman et al., eds., Pergamon Press, New York (1980)), was used as a positive control.
# [4] = Cell toxicity in the HSV-2 assay
# Text: (Davis, B., Chapter 55 in Microbiology, Including Immunology and Molecular Genetics, 3rd Ed., Harper & Row, Philadelphia (1980), p. 1064). Particularly preferred host cells are rabbit skin cells or Vero cells. (Grammer, S., et al., J. Immunol. 145:2249-2253 (1990); Gao, W., et al., J. Biol. Chem. 265:20172-20178 (1990)). […] (See, e.g., Groupe, V., et al., Proc. Soc. Exptl. Biol. Med. 78:354-358 (1951); Mitsuya, H., et al., Science 226:172-174 (1984)). Acyclovir, a known antiherpesviral agent (Douglas, R., Chapter 51 in Goodman and Gilman's the Pharmacological Basis of Therapeutics, 8th Ed., G. Gilman et al., eds., Pergamon Press, New York (1980)), was used as a positive control.
Compound,Lowest concentration with activity against L. Donovani: Lysis (Leishmania donovani [1]),Lowest concentration with activity against L. Donovani: Growth (Leishmania donovani [2]),Lowest concentration with activity against L. Donovani: Growth (Serum Free Medium) (Leishmania donovani [2]),HSV-2 LD50 [3] [µg/mL],Cell Toxicity [4] [µg/mL],Cell Toxicity ([4]; host cells of the HSV-2 assay) [µg/mL]
"CCCCCCC[C@@H](O)CC(=O)N[C@@H](CC(C)C)C(=O)N[C@H](CCC(=O)O)C(=O)Nc1ccc2c(c1)OCCOCCOCCOCCO2 [Compound 11, 15-[[N-[N-[D-3-Hydroxydecanoyl]-L-Leucyl]-D-glutamyl]amino]-2,3,5,6,8,9,11,12-octahydro-1,4,7,10,13-benzopentaoxacyclopentadecin]",no effect,no effect,no effect,> 100,> 100,
Deshydroxy Viscosin [Compound 3],,,,19 to 28,,
CCCCCCCCCCCCCCC(CCC(=O)OCc1ccccc1)C(=O)Nc1ccc2c(c1)OCCOCCOCCOCCO2 (stereo not shown) [Compound 14],30 mg/mL,100 mg/mL,10 mg/mL,> 33,100,
"CCCCCCCCCC(=O)N[C@@H](CC(C)C)C(=O)N[C@H](CCC(=O)O)C(=O)Nc1ccc2c(c1)OCCOCCOCCOCCO2 [Compound 13, 15-[[N-[N-[Decanoyl]-L-Leucyl]-D-glutamyl]amino]-2,3,5,6,8,9,11,12-octahydro-1,4,7,10,13-benzopentaoxacyclopentadecin]",no effect,no effect,no effect,> 100,> 100,
"CCCCCCC[C@@H](O)CC(=O)N[C@@H](CC(C)C)C(=O)N[C@H](CCC(=O)O)C(N)=O [Compound 7, D-3-Hydroxydecanoyl-L-Leu-D-Glu-Amide]",no effect,no effect,no effect,> 100,> 100,
"CCCCCCC[C@@H](O)CC(=O)N[C@@H](CC(C)C)C(=O)N[C@H](CCC(=O)OCc1ccccc1)C(=O)Nc1ccc2c(c1)OCCOCCOCCOCCO2 [Compound 10, 15-[[N-[N-[D-3-Hydroxydecanoyl]-L-Leucyl]-O-(phenylmethyl)-D-glutamyl]amino]-2,3,5,6,8,9,11,12-octahydro-1,4,7,10,13-benzopentaoxacyclopentadecin]",30 mg/mL,100 mg/mL,100 mg/mL,> 100,> 100,
"CCCCCCC[C@@H](O)CC(=O)N[C@@H](CC(C)C)C(=O)N[C@H](CCC(=O)O)C(=O)N[C@@H](C(=O)N[C@@H](C(=O)N[C@@H](CC(C)C)C(=O)N[C@H](CO)C(=O)N[C@@H](CC(C)C)C(=O)N[C@H](CO)C(=O)N[C@H](C(=O)O)[C@@H](C)CC)C(C)C)[C@@H](C)O [Compound 5, Viscosic Acid]",,,,,,> 100
CC(=O)Nc1ccc2c(c1)OCCOCCOCCOCCO2 [Compound 16],,,,> 100,> 100,
"CCCCCCCCCC(=O)N[C@@H](CC(C)C)C(=O)N[C@H](CCC(=O)OCc1ccccc1)C(=O)Nc1ccc2c(c1)OCCOCCOCCOCCO2 [Compound 12, 15-[[N-[N-[Decanoyl]-L-Leucyl]-O-(phenylmethyl)-D-glutamyl]amino]-2,3,5,6,8,9,11,12-octahydro-1,4,7,10,13-benzopentaoxacyclopentadecin]",100 mg/mL,no effect,no effect,> 50,100,
"CCCCCCCCCCCCCCCCCC(=O)c1ccc2c(c1)OCCOCCOCCOCCO2 [Compound 42, Octadecanoyl benzo-15-Crown-5-ether]",,,,> 100,> 100,
Octadecanoyl Viscosin [Compound 4],,,,> 100,,
CCCCCCCCCCCCCCC(CCC(=O)O)C(=O)Nc1ccc2c(c1)OCCOCCOCCOCCO2 (stereo not shown) [Compound 15],30 mg/mL,30 mg/mL,10 mg/mL,11,33,
"Nc1nc2c(ncn2COCCO)c(=O)[nH]1 [Acyclovir, reference compound]",,,,0.6 to 1.5,,
